Article PMC8840040, “Pharmacokinetic Characterization of the DDAH1 Inhibitors ZST316 and ZST152 in Mice Using a HPLC-MS/MS Method” (Molecules, 2022)
Where “and” joins values, the source holds several entries; their conditions need not be identical. Equal entries are not always repeated. Where two headings read alike, the source gives them in different places.

Experiment: Plasma pharmacokinetics and urinary elimination after single oral and intravenous administration
Format: in vivo, FVB mice
Conditions: for urinary excretion, range over oral and intravenous route: 24 h urine, p.o. 60 mg/Kg to i.v. 30 mg/Kg; for clearance: read-out: Clp (plasma clearance) (converted); for Vd: read-out: Vd (volume of distribution); for bioavailability: oral, 60 mg/Kg, read-out: F % (bioavailability); for time up to which detectable in plasma: concentration close to the LLOQ (5 ng/mL)
Description: Mice were treated with ZST316 and ZST152 using a dose of 60 mg/Kg (oral gavage) and 30 mg/Kg (intravenous bolus). For pharmacokinetic sampling, blood was collected at 15 and 30 min, and 1, 3, 8, and 24 h post dose. Three mice were analyzed per each time point. After the animals were anesthetized with isoflurane, the blood was drained from the retro-orbital plexus into heparinized tubes, and then centrifuged for 10 min at 4000× g at 4 °C to separate plasma. A 24-h urine fraction was collected in three mice for each drug and route of administration. Plasma and urine samples were stored at −20 °C until analysis by HPLC-MS/MS.
In the preliminary phase of the method set up, we tried different solvents, 2-propanol, methanol (CH3OH), and acetonitrile (CH3CN) at different pH conditions, quickly obtaining a satisfactory recovery with CH3OH: 0.1% formic acid (HCOOH). Briefly, to assay ZST316, 10 µL of IS (ZST152 WS: 500 ng/mL) were added to 100 µL of plasma study samples, standards, or QCs in a polypropylene tube. The sample was then added with 10 µL of ammonium formate (NH4HCO2) 50 mM, mixed by vortex and added with 400 µL CH3OH: 0.1% HCOOH, vortex mixed again for 30 s and centrifuged at 13,200 rpm for 10 min at 4 °C. A volume of 450 µL of the supernatant was transferred to a new polypropylene tube, dried under nitrogen flow, and reconstituted with 100 µL of MP A:B (1:1, v/v). Finally, the mixed samples were centrifuged at 13,200 rpm for 10 min at 4 °C and the supernatant was transferred into glass vials for HPLC-MS/ MS analysis. Plasma samples containing drug concentrations above the highest standard point of the calibration curve were reanalyzed following dilution with the control matrix.
To assay ZST316, 5 µL of IS (ZST152 WS: 100 µg/mL) were added to 50 µL of urine samples, standards, or QCs in a polypropylene tube. After vortex mixing, 490 µL of MP A:B (1:1; v/v) were added to 10 µL of each sample to obtain a final dilution of 1:50. Samples were vortex mixed again for 30 s, centrifuged at 13,200 rpm for 10 min at 4 °C, and, finally, the supernatant was transferred into glass vials for HPLC-MS/ MS analysis. The urine samples with drug concentrations above the highest standard point of the calibration curve were reanalyzed following dilution with control matrix.
[…] chromatography was performed using a series 200 HPLC system (Perkin Elmer, Waltham, MA, USA) under gradient conditions with separation on a HILIC column, 3 µm, 100 A, 2.1 × 150 mm (Waters, Milford, MA, USA), coupled with a 3 µm, 3.9 × 5.0 mm guard column of the same material at the flow rate of 0.2 mL/min. Gradient features: 10% mobile phase (MP) A (NH4HCO2 10 mM, 10% CH3CN, 0.1% HCOOH) and 90% MP B (CH3CN, 0.1% HCOOH) as the initial constant condition; then to 90% MP A in 6 min and the constant condition for 1.5 min. Return to the start condition in 0.5 min and conditioning for 5.5 min. Total run time: 13.5 min. Mass spectrometric detection was performed using an API 4000 triple quadrupole mass spectrometer (SCIEX, Framingham, MA, USA) supplied with a Turbo Ion Spray source set at 350 °C and −4200 V, analyzing biological samples with electrospray ionization (ESI) operating in negative ion mode. Purified air was used as nebulizer gas (Gas 1) and heater gas (Gas 2) and N2 was used as curtain gas and collision activated dissociation gas. They were set to 40, 50, 20, and 4 instrument units (psi), respectively. The declustering potential (DP) was set at −119 V and the collision exit potential (CXP) at –10 V. All parameters of the source were defined by direct infusion of ZST316 and ZST152 1 µg/mL in mobile phase B. The final quantification was carried out in Selected Reaction Monitoring (SRM) with the following transitions: m/z 307.9 → 208.0 (collision energy of −29.5 eV) for ZST316 and m/z 271.9 → 170.9 (collision energy −24.7 eV) for ZST152 (Figure 2 and Figure 3). Data were processed with the software package Analyst 1.6.2 (AB SCIEX). […]

[1] = FVB, mouse, plasma, iv, 30 mg/kg, i.v. 30 mg/Kg, single bolus
[2] = FVB, mouse, plasma, iv, 30 mg/kg, i.v. 30 mg/Kg, read-out: AUC 0-8h
[3] = FVB, mouse, plasma, iv, 30 mg/kg, i.v. 30 mg/Kg, read-out: AUC 0-last
[4] = FVB, mouse, plasma, iv, 30 mg/kg, i.v. 30 mg/Kg, read-out: Half-life (converted)
[5] = FVB, mouse, plasma, iv, i.v. 30 mg/Kg
[6] = FVB, mouse, plasma, p.o. 60 mg/Kg vs i.v. 30 mg/Kg, dose normalized
[7] = FVB, mouse, plasma, po, 60 mg/kg, p.o. 60 mg/Kg, read-out: AUC 0-8h
[8] = FVB, mouse, plasma, po, 60 mg/kg, p.o. 60 mg/Kg, read-out: AUC 0-last
[9] = FVB, mouse, plasma, po, 60 mg/kg, p.o. 60 mg/Kg, read-out: Half-life (converted)
[10] = FVB, mouse, plasma, po, p.o. 60 mg/Kg

Compound | urinary excretion, range over oral and intravenous route | Cmax [1] [µg/mL] | AUC(0-t) [2] [µg·h/mL] | AUC(0-t) [3] [µg·h/mL] | half-life [4] [min] | AUC(0-inf) [5] [µg·h/mL] | Tmax [5] [min] | clearance [5] [L/h/kg] | Vd [5] [L/kg] | bioavailability [6] [%] | AUC(0-t) [7] [µg·h/mL] | AUC(0-t) [8] [µg·h/mL] | half-life [9] [min] | AUC(0-inf) [10] [µg·h/mL] | Tmax [10] [min] | 24 h urinary excretion (% of dose) (i.v. 30 mg/Kg) | time up to which detectable in plasma (i.v. 30 mg/Kg) [h] | 24 h urinary excretion (% of dose) (p.o. 60 mg/Kg) | time up to which measurable in plasma (p.o. 60 mg/Kg) [h] | further results
COCCNC(=N)NCCC[C@H](N)c1noc(=O)[nH]1 [ZST152] | 12.5%–22.2% and 12.5–22.2% | 24.9 | 9.25 | 9.25 | 72 | 9.26 | 5 | 3.24 | 5.49 | 33 | 6.17 | 6.17 | 51.6 | 6.18 | 15 | 22.2 % of dose | 8 | 12.5 % of dose | 8 | half-life (i.v. 30 mg/Kg, 30 mg/kg): 70.2 min; F % (bioavailability) (p.o. 60 mg/Kg vs i.v. 30 mg/Kg, dose normalized): 33.3%; urinary excretion relative to that of ZST316 (regardless of the route of administration): four- to fivefold
COCCNC(=N)NCCC[C@H](N)C(=O)NS(C)(=O)=O [ZST316] | 2.3%–7.5% and 2.3–7.5% | 67.4 | 21.4 | 21.5 | 360 | 21.6 | 5 | 1.39 | 12.2 | < 5 | 1.94 | 1.94 | 97.8 | 2.01 | 30 | 7.5 % of dose | 24 | 2.3 % of dose | 8 | Cmax (FVB, mouse, plasma, po, 60 mg/kg, p.o. 60 mg/Kg, single dose): 1.02 µg/mL; concentration at 8 h (FVB, mouse, plasma, po, p.o. 60 mg/Kg, 8 h post dose): 0.029 µg/mL; AUC after intravenous administration relative to that of ZST152 (i.v. 30 mg/Kg): approximately twice
